Several values for one entry are separate records, joined by “and”; a condition that tells them apart may be missing. Identical values can stand only once.
Experiments:
IKBKB^M96V mutant = IKBKB^M96V mutant (Homo sapiens, UniProt O14920, M96V)
Method: (§2) After the kinase reaction, an equal volume of ADP-Go™ Reagent is added to both terminate the kinase reaction and deplete the remaining ATP. Subsequently, the Detection Reagent is added to simultaneously convert ADP to ATP and measure the concentrations of newly synthesized ATP using a luciferase/luciferin reaction. The light generated is measured using a 96-well plate reader SpectraMax M3 (Molecular Devices). Luminescence can be correlated to ADP concentrations by using an ATP-to-ADP conversion curve.

IKKβ [1] = target: T1, IKKβ (Homo sapiens, UniProt O14920)
Method: as §2

Tg26 mice = assay: HIV-1 transgenic (Tg26) model; format: in vivo, mouse
Method: (§1) Urine albumin was quantified by ELISA using a kit from Bethyl Laboratory Inc. Urine creatinine levels were measured in the same samples using the Creatinine Colorimetric Assay Kit (500701; Cayman Chemical) as per manufacturer's protocol.
Briefly formalin-fixed and paraffin embedded sections were deparaffinized, and endogenous peroxidase was inactivated with H2O2. All kidney sections from these mice were prepared in identical fashion. Immunofluorescence was performed using rabbit anti-KLF15, mouse anti-WT1 (Santa Cruz, SC-7385), rabbit anti-Synaptopodin (Sigma, SAB3500585), rabbit anti-p65 (Cell Signaling Tech, 8242S) antibodies. After washing, sections were incubated with the appropriate fluorophore-linked secondary antibody (Alexa Fluor 647 Donkey anti-mouse, Alexa Fluor 568 Donkey anti-rabbit antibodies, Life Technologies). After counter staining with Hoechst (Thermo Fisher Scientific), slides were mounted in Prolong Gold mounting media (Thermo Fisher Scientific) and photographed under a Nikon Eclipse Ni-E Fully Motorized Microscope System with a DS-Qi2 digital camera.
Quantification of KLF15 staining in the podocytes was determined by quantifying the intensity of KLF15 staining (optical density) in WT1+Hoechst staining using ImageJ 1.53c software (National Institute of Health, http://imagej.nih.gov/ij).
Mice were perfused with PBS, and the kidneys were fixed in 10% phosphate buffered formalin overnight and switched to 70% ethanol before processing for histology. Kidney tissue was embedded in paraffin by Stony Brook Medicine Research Histology Core Laboratory (RHCL)—Department of Pathology and 4-μm-thick sections were stained with periodic acid-Schiff (PAS), hematoxylin & eosin (H&E), and masson's trichrome (Sigma-Aldrich). Quantification of % FSGS was determined by renal pathology in a blinded fashion (Huntsman Cancer Institute-University of Utah Health).

FVB/n mice = assay: LPS-induced proteinuric murine model; format: in vivo, mouse
Method: In the LPS-induced proteinuric model, all 8-week-old FVB/n mice were initially treated with LPS [intraperitoneal (IP), 10 μg/g, Sigma-Aldrich] or sterile normal saline (IP) at 0- and 24-hour time points as previously described (17). […] Urine was collected and mice were euthanized 48 hours post-LPS treatment.
as §1
Briefly, mice were perfused with PBS containing 2.5 mg/ml iron oxide and 1% BSA. At the end of perfusion, kidneys were removed, decapsulated, minced into 1 mm^3 pieces, and digested in PBS containing 1 mg/ml collagenase A. Digested tissue was subsequently passed through a 100 μm cell strainer and collected by centrifugation. The pellet was resuspended in 1 ml PBS and glomeruli were collected using a magnet. The purity of glomeruli was verified under microscopy. Total RNA was isolated from kidney glomeruli of mice using the RNeasy Kit (Qiagen, Germantown, MD).
Total RNA from cells was extracted by using TRIzol (Life Technologies). First-strand cDNA was prepared from total RNA (up to 1.25 μg) using the SuperScript™ IV VILO™ Master Mix (Life Technologies), and cDNA was amplified in triplicate using PowerUp™ SYBR™ Green Master Mix on an ABI QuantStudio3 (Applied Biosystems). Primers for human and mouse genes were designed using NCBI Primer-BLAST and validated for efficiency before application (Table 1). Data were normalized to housekeeping genes (GAPDH or ACTB) and presented as a fold increase compared with RNA isolated from the control group using the ΔΔCT method.
Transmission Electron Microscopy (TEM) was done in the Central Microscopy Imaging Center at Stony Brook Medicine. Briefly, after embedding the kidney tissues in epoxy resin, ultrathin sections were stained with uranyl acetate and lead citrate, then mounted on a copper grid, and photographed under a FEI BioTwin G2 Transmission Electron Microscope with AMT XR-60 CCD digital Camera (FEI).

[2] = target: hERG Human Potassium Ion Channel (Homo sapiens, UniProt Q12809); assay: hERG Human Potassium Ion Channel Cell Based QPatch CiPA Assay
Source text: A 500 ms pulse to −40 mV is delivered to measure the leaking current, which is subtracted from the tail current on-line. The cell is subsequently depolarized to +40 mV for 500 ms and then to −80 mV over a 100 ms ramp to elicit the hERG tail current. The parameters measured were the maximum tail current evoked on stepping to 40 mV and ramping back to −80 mV from the test pulse. All data were filtered for seal quality, seal drop, and current amplitude.

[3] = system: KLF15 promoter (pEZX-FR03hKLF5p human podocytes); assay: Lipopolysaccharide treatment in human podocytes, KLF15 reporter activity; format: cell-based; conditions: as compared to DMSO
Method: Differentiated pEZX-FR03hKLF5p human podocytes were treated with 25 μg/ml lipopolysaccharide (LPS) or vehicle and 1 μM KLF15 agonist or vehicle control for 24 hours. Firefly and renilla luciferase assay were measured initially to determine relative KLF15 reporter activity.

[4] = system: KLF15 promoter (pEZX-FR03hKLF15p human podocytes); assay: Half maximal effective concentration (EC50) of KLF15 reporter activity; format: cell-based; conditions: KLF15 reporter activity, dose-response; read-out: EC50
Method: The EC50 was determined using nonlinear regression and then choosing the equation of Sigmoidal function, 4PL method (X is log(concentration); or the equation of log(agonist) vs. response—variable slope).
To identify small molecule inducers of KLF15 expression in human podocytes, human podocytes were generated with a dual reporter, firefly luciferase directed at the KLF15 promoter region and renilla luciferase (pEZX-FR03hKLF15p). […] The positive controls were inducers of KLF15 expression, dexamethasone (DEX) and all-trans retinoic acid (atRA), and […] and cell-free wells served as negative controls.

IKKβ [5] = target: T1, IKKβ; assay: Thermal shift assay; conditions: BT503 1 μM, human podocytes
Method: Each tube was treated at a range of temperatures (40° C. to 52° C.) for 3 minutes using Eppendorf Mastercycler gradient temperature setting. Protein was subsequently extracted from cells using freeze-thaw cycle, and IKKβ and β-actin were detected using western blot.

[6] = system: differentiated human podocytes; assay: Oxygen consumption rate and extracellular acidification rate (Seahorse XFe96); format: cell-based
Method: Subsequently, basal OCR, maximal respiration, ATP-linked respiration, and spare respiratory capacity were determined in the presence of oligomycin, carbonyl cyanide-p-trifluoromethoxyphenylhydrazone (FCCP), and rotenone/antimycin A. All OCR measurements were normalized for the number of cells per well using CyQuant reagent (Life Technologies).

Chain of hERG Human Potassium Ion Channel (Q12809 whole entry): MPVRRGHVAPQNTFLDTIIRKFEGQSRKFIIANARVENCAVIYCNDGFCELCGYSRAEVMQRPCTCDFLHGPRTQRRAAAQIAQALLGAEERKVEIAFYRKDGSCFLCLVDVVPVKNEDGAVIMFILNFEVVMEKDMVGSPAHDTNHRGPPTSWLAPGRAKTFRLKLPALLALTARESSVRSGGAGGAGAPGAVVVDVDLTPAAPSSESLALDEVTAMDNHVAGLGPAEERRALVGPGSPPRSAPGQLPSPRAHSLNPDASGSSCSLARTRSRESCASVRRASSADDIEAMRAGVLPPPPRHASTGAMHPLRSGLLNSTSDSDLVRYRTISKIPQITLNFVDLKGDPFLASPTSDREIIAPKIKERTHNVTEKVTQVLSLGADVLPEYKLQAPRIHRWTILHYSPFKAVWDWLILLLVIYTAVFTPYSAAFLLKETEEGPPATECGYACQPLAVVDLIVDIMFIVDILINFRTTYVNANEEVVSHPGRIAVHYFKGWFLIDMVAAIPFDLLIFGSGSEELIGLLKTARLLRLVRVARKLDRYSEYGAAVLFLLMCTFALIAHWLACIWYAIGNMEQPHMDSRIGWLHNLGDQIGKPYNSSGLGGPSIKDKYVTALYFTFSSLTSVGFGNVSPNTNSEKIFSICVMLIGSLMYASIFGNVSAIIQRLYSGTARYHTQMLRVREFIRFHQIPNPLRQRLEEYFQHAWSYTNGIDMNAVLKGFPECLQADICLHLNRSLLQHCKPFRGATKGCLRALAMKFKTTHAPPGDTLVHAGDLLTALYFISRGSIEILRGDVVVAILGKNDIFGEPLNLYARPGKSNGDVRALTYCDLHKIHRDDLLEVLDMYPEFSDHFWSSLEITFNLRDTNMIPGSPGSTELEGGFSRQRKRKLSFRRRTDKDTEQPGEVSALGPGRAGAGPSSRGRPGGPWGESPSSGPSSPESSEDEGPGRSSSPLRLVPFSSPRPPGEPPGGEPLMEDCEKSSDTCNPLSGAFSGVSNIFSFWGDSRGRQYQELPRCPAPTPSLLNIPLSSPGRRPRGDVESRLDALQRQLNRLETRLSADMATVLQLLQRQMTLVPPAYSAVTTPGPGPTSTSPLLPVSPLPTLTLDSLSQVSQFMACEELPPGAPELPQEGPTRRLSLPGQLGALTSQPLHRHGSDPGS
T1 sequence (O14920 whole entry): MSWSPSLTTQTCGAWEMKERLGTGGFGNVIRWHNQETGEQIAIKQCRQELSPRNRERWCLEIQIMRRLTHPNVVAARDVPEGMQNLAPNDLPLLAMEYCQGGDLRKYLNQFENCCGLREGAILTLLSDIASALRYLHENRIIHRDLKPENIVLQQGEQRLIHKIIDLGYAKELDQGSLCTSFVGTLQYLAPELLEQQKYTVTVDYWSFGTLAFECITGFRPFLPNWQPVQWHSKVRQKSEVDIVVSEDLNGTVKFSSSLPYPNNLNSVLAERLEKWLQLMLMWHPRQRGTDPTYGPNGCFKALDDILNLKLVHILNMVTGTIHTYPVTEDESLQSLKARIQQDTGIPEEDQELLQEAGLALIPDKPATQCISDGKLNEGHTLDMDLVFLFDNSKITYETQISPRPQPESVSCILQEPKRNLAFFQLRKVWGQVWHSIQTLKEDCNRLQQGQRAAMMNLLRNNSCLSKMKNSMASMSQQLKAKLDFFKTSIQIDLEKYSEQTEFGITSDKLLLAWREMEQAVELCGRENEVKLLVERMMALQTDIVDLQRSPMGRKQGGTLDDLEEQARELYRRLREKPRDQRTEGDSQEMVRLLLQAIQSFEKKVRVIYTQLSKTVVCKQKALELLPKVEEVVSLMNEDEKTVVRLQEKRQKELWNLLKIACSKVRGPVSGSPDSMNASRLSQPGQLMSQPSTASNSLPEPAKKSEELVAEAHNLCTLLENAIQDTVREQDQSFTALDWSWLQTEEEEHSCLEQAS
Chain of IKBKB^M96V mutant (O14920 whole entry M96V): as the sequence (O14920 whole entry) above, with M96V counted along it

For `CSc1ccc(NC(=O)Nc2ccc(C)nc2)cc1` [BT503], the “IKKβ kinase inhibition in IKBKB^M96V mutant as compared to IKBKB^WT” value (IKBKB^M96V mutant) was “resistance to IKKβ kinase inhibition”, the “inhibition of kinase activity at higher ATP concentrations” value (IKKβ [1]; ATP 50 μM) was “mitigated” and the IC50 (IKKβ [1]; read-out: IC50 (IKKβ kinase activity), IKBKB^WT) was 0.163 µM. The “p65 expression (kidney lysates)” value (Tg26 mice) was “reduced”, the albuminuria (Tg26 mice; daily for 14 days, vs DMSO) was “significantly mitigated the increase in albuminuria” and the “% of glomeruli with focal segmental and global GS lesions” value (Tg26 mice; vs DMSO) was “significantly reduced”. The glomerular synaptopodin expression (Tg26 mice; vs DMSO) was “restored”, the interstitial fibrosis (Tg26 mice; vs DMSO) was “reduced interstitial fibrosis” and the “kidney function (serum urea nitrogen and creatinine)” value (Tg26 mice; vs DMSO) was “improved kidney function”. The “podocyte number (WT1+ podocytes per glomerular cross-sectional area)” value (Tg26 mice; vs DMSO) was “preserved podocyte number”, the “Glomerular Klf15 and Wilms Tumor 1 (Wt1) expression” value (FVB/n mice; LPS conditions, vs DMSO-treated mice) was “restored” and the albuminuria (FVB/n mice; LPS proteinuric murine model, concurrent treatment, vs DMSO) was “attenuated albuminuria”. For the same compound, the “foot process effacement (podocyte injury)” value (FVB/n mice; LPS treatment) was “significantly restored”, the “% inhibition mean” value ([2]; 3 μM) was 1.20% and the “% inhibition n1” value ([2]; 3 μM) was −2.01%. The “% inhibition n2” value ([2]; 3 μM) was 4.41%, the “% inhibition mean” value ([2]; 10 μM) was 6.25% and the “% inhibition n1” value ([2]; 10 μM) was −0.08%. The “% inhibition n2” value ([2]; 10 μM) was 12.57%, the hERG inhibition ([2]; 3-10 μM, as compared to positive control) was “low inhibition” and the “KLF15 activity in the setting of LPS treatment” value [3] was “maintained the elevated KLF15 activity”. The EC50 [4] was ~0.0071 µM and < 0.01 µM, the “IKKβ stability (thermal shift)” value (IKKβ [5]) was “IKKβ stability was reduced in DMSO as compared to BT503 treatment” and the “basal respiration, maximal respiration, ATP-linked respiration, and spare respiratory capacity” value ([6]; 3-10 μM) was “No significant differences”. The “oxygen consumption rate (OCR) and extracellular acidification rate (ECAR)” value ([6]; as compared to DMSO or DEX) was “no significant differences”.

Reference: US20250186411A1, “Methods of Treating Disorders Associated with Overactivation of IKKB” (The United States Government as represented by the …, priority 2023, published 2025)
